The target of test [1] is HIF-1a (Homo sapiens, UniProt Q16665). The conditions noted are these: cited from earlier work.
Test [2] relates to PHD. The conditions noted are these: cited from earlier work.
Test [3] addresses HIF-2a (Homo sapiens, UniProt Q99814). The note with it: target HIF-2a; cited from earlier work.
The target in test [4] is T1, EPO/EPOR interaction (EPOR-CD131-Fc and EPO) (Homo sapiens, UniProt P19235+P32927).
T1 construct: Chimeric Fc fusion proteins of the extracellular domains of human EPOR and human CD131; purchased Sino Biological CT010-H02H
T1 sequence (P19235 25-250 limits assumed): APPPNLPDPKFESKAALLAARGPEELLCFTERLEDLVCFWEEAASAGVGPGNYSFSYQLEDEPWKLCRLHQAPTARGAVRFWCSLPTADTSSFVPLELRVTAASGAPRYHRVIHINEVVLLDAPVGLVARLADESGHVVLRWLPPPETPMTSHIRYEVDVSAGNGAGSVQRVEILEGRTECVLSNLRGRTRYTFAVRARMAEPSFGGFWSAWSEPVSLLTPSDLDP
T1 sequence (P32927 17-443 limits assumed): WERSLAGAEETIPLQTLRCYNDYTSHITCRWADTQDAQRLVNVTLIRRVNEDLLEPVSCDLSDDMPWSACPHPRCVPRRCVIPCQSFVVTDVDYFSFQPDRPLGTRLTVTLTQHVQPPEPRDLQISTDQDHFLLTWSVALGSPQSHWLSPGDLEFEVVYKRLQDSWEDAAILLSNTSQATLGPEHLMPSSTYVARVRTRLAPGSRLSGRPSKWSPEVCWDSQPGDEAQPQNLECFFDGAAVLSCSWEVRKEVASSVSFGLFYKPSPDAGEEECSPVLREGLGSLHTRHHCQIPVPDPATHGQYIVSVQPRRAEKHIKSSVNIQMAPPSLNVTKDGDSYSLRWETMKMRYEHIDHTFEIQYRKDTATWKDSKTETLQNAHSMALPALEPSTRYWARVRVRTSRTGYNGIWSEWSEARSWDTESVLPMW
The test can be described thus: Octet blocking of the EPO/EPOR interaction by hybridoma supernatants. The conditions noted are these: EPO 10 nM. Type of test: binding.

Test [5] addresses T2, soluble hetero-EPOR (EPOR-CD131-Fc) (Homo sapiens, UniProt P19235+P32927).
T2 construct: Chimeric Fc fusion proteins of the extracellular domains of human EPOR and human CD131; purchased Sino Biological CT010-H02H
T2 sequence (P19235 25-250 limits assumed): T1 sequence (P19235 25-250 limits assumed)
T2 sequence (P32927 17-443 limits assumed): T1 sequence (P32927 17-443 limits assumed)
The experiment in a line: Bio-layer interferometry (Octet) binding of hybridoma antibodies to EPOR-CD131-Fc. The conditions noted are these: hybridoma supernatants; 30 nM soluble receptor. An excerpt:
(§1) The B cells from ATX-GK mice were fused with mouse myeloma cells to generate hybridoma. The hybridoma cells were screened twice. In the first screening, 293 cells expressing human EPOR, human CD131, or both were used as the primary screen. 87 hybridoma antibodies have been isolated by positive staining on 293T cells expressing human EPOR (hEPOR), human CD131 (hCD131), or both, with the hybridoma supernatants (Table 11 and FIG. 17). Expression of EPOR and CD131 was confirmed by flow cytometry with Phycoerythrin (PE)-labeled anti-EPOR (R&D Systems, Cat #FAB307P) and Alexa Fluor® 647 (AF647)-labeled anti-CD131 (BD Biosciences, Cat #564191), respectively (FIG. 28B). All hybridoma clones were purified and sequenced. Binding kinetics with soluble hetero-EPOR (EPOR-CD131-Fc), soluble EPO receptor subunit of hetero-EPOR (EPOR-Fc), and soluble CD131 subunit of hetero-EPOR (CD131-Fc) were measured using bio-layer interferometry (Octet®) by capturing the hybridoma antibodies in the supernatants on biosensors coated with anti-mouse Fc first and dipping the biosensors into the solutions containing 30 nM of the soluble receptor Fc fusion proteins. The supernatants were also used to block the interaction between EPO and EPOR. The soluble EPOR-CD131-Fc was first captured on biosensors coated with anti-human Fc and then dipped into 10 nM of EPO with or without the hybridoma supernatants. […]

In test [6] the target is T3, EPOR-Fc (Homo sapiens, UniProt P19235).
T3 construct: The extracellular domains of EPOR or CD131 are produced as soluble Fc fusion proteins; purchased Sino Biological 10707-H02H
T3 sequence (P19235 25-250 limits assumed): T1 sequence (P19235 25-250 limits assumed)
The test can be described thus: Bio-layer interferometry (Octet) binding of hybridoma antibodies to EPOR-Fc. The conditions noted are these: hybridoma supernatants; 30 nM soluble receptor.
From the text: as §1

Residue numbers refer to the chain shown, from its start. Like-named read-outs stand apart in the source and are kept apart here.

Sequence of HIF-1a (Q16665 whole entry): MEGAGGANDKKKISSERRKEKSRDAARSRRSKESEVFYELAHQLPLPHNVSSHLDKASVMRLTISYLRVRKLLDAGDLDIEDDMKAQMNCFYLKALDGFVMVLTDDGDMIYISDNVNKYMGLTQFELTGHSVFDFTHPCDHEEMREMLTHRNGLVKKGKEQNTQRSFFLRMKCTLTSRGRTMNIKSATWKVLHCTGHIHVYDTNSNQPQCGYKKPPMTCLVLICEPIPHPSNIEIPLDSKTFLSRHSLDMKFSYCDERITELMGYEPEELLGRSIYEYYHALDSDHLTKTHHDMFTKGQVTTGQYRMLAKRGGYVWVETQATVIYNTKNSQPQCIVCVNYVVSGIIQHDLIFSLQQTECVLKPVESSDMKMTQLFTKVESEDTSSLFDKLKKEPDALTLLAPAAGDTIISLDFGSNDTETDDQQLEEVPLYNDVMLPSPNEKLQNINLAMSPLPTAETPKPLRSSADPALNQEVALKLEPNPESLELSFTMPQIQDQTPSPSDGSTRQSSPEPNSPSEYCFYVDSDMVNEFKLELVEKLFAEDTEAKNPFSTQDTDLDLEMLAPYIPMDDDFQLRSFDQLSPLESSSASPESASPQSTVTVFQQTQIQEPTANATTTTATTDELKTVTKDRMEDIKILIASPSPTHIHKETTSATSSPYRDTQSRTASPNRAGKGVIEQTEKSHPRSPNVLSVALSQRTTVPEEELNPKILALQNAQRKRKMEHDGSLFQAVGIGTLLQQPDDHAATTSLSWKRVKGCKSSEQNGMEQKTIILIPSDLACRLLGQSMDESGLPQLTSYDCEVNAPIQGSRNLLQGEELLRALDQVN
Sequence of HIF-2a (Q99814 whole entry): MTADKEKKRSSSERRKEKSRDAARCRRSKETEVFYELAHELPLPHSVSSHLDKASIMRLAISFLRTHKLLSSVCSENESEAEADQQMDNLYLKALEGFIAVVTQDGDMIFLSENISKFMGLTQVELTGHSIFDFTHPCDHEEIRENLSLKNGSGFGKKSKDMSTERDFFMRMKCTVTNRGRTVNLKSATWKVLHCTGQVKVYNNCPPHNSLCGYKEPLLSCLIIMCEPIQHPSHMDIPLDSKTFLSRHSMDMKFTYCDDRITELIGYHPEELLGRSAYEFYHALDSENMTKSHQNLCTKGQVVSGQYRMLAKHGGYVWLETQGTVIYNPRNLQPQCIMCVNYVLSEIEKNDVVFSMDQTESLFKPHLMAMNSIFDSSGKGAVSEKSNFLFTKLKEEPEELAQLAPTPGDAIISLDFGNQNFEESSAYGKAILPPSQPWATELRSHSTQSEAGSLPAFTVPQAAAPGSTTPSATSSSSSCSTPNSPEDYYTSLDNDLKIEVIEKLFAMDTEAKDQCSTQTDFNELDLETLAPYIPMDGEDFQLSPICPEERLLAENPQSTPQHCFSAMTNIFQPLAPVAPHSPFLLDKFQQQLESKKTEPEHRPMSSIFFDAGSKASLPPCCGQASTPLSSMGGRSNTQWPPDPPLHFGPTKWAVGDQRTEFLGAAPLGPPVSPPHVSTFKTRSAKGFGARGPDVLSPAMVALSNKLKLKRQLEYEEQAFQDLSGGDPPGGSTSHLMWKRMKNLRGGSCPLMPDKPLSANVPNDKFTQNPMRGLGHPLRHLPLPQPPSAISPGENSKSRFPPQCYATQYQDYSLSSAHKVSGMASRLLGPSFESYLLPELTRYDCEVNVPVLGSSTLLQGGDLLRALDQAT

On to `CC[C@@H](C)C[C@H](C)C[C@H](C)/C=C(\C)[C@H]1OC(O)([C@](C)(O)C(=O)N[C@@H]2C(=O)N3NCCC[C@@H]3C(=O)N(O)CC(=O)N(C)CC(=O)NCC(=O)N(C)CC(=O)O[C@H]2C(C)C)CC[C@@H]1OC` (stereo partly shown) [Verucopeptin], for which the IC50 in test [1] (target HIF-1a, read-out: IC50) was 220 nM.

`COC(=O)c1ccc(O)c(NC(=O)COc2ccc(C34CC5CC(CC(C5)C3)C4)cc2)c1` [CAY10585 (LW6)]: the IC50 in test [1] (read-out: IC50) is 700 to 2600 nM.

For the molecule `O=c1c(-n2ccnn2)c[nH]n1-c1cc(N2CCOCC2)ncn1` [Molidustat], in test [2] (target PHD), the IC50 is 450 nM.

With `O=[N+]([O-])c1cc(Nc2ccc3nonc3c2[N+](=O)[O-])ccc1Cl` [HIF-2α-IN-3], the half-maximal inhibitory concentration (IC50) in test [3] was 400 nM.

Take `O=C(O)CNC(=O)c1ncc(-c2cn(CCCc3ccc(Cl)cc3)nn2)cc1O` [Prolyl Hydroxylase inhibitor 1]: the IC50 in test [2] (target PHD) was 62.2 nM.

On to `Cc1ccc(C(=O)COC(=O)c2cccc(NC(=O)c3ccc([N+](=O)[O-])cc3[N+](=O)[O-])c2)cc1` [FM19G11], for which the IC50 in test [1] (target HIF-1a) is 80 nM.

In the case of `c1ccc(-c2ccc(CNc3nc(-c4ccccn4)nnc3-c3ccccc3)cc2)cc1` [ML228], in test [2] (target cell empty), the IC50 is 1000 nM.

With `CN1C(=O)[C@]2(Cc3cn([C@]45C[C@@]67SS[C@@](CO)(C(=O)N6[C@H]4Nc4ccccc45)N(C)C7=O)c4ccccc34)SS[C@@]1(CO)C(=O)N2C` [Chetomin], the IC50 in test [1] (target HIF-1a, read-out: IC50) is 10 nM.

Turning to `O=S(=O)(NCCSSCCNS(=O)(=O)c1cc(Cl)ccc1Cl)c1cc(Cl)ccc1Cl` [KC7F2], the IC50 in test [1] (target HIF-1a, read-out: IC50) is 20000 nM.

For `COC(=O)c1sccc1N/N=C(\C#N)S(C)(=O)=O` [HIF-2α-IN-4], in test [3], the IC50 is 5000 nM.

For `O=[N+]([O-])c1c(Nc2cc(F)cc(Cl)c2)ccc2nonc12` [TC-S 700], the IC50 in test [3] is 81 nM.

With `CS[C@H]1SC[C@H]2C(=O)N(C)[C@@H](C(C)C)C(=O)OC[C@@H](NC(=O)c3cnc4ccccc4n3)C(=O)N[C@@H](C)C(=O)N(C)[C@@H]1C(=O)N(C)[C@@H](C(C)C)C(=O)OC[C@@H](NC(=O)c1cnc3ccccc3n1)C(=O)N[C@@H](C)C(=O)N2C` [Echinomycin], in test [1] (target HIF-1a, read-out: IC50), the IC50 was 1.2 nM.

B1: EPORab - M54: hybridoma antibody clone, VH/VK in Table 10 (antibody, V domains shown)
VH: QLQLQESGPGLVKPSETLSLTCSVSGGSISSSGYYWGWIRQPPGKGLDWIGTIYYSGNTNYNPSLNSRVTISVDTSRNQFSLKLRSVTAADTAVYYCARGYSYGPFDYWGQGTLVTVSS
VL: EIVMTQSPATLSVSPGERATLSCRASQSVSSNLAWYQLKPGQAPRLLIYGASTRATGIPARFSGSGSGTEFTLTISSLQSEDFAVYYCHPYNNWPLTFGGGTKVEIK
As to B1, the “blocking of the EPO/EPOR interaction” value in test [4] was “partial blocking”.

B2: EPORab - M71: hybridoma antibody clone, VH/VK in Table 10 (antibody, V domains shown)
VH: QVQLVESGAEVKKPRASVKVSCKTSGYTFTRHYMHWVRQAPGQGLEWMGIINPNNNSTSYAQKFQGRITMTRDTSTSTVYMELSSLRSEDTAVYYCARFRIVGTTLYFDYWGQGTLVTVSS
VL: B1 VL
As to B2, the “blocking of the EPO/EPOR interaction” value in test [4] is recorded as “did not block”.

B3: EPORab - M52: hybridoma antibody clone, VH/VK in Table 10 (antibody, V domains shown)
VH: QLQLQESGPGLAKPSETLSLTCTVSGVSISSNSYYWGWIRQPPGKGLEWIGNIYHSGRTYYNPSLRSRVTISVDTSKNQFSLKLNSVTAADTAVYYCARGYSYGAFDYWGQGTLVTVSS
VL: DIQMTQSPSSLSASVGDRVTITCRASQGIRNDLGWYQQKPGKAPKRLIYAASSLQSGIPSRFSGSGSGTEFTLTISSLQPEDFATYYCLQHNNYPWTFGQGTKVEIK
Consider B3, for which the “blocking of the EPO/EPOR interaction” value in test [4] is listed as “partial blocking”.

B4: EPORab - M19: hybridoma antibody clone, VH/VK in Table 10 (antibody, V domains shown)
VH: QLQLQESGPGLVKPSETLSLTCTVSGGSISSSNHYWGWIRQPPGKGLEWIGTLYYSGSTYYEPSLKSRVTISVDTSMNQFSLNLSSVTATDTAVYNCARGDRYGPFDYWGQGTLVTVSS
VL: B3 VL with Q3V, N31D, G41E, Y49C, I58V, H91Y, N93R
In the case of B4, in test [4], the “blocking of the EPO/EPOR interaction” value is “partial blocking”.

B5: EPORab - M1: hybridoma antibody clone, VH/VK in Table 10 (antibody, V domains shown)
VH: QVQLQESGPGLVKPSQTLSLTCTVSGGSISSGGYYWSWIRQHPGKGLEWIGNIYYSGNPYYNPSLKSRLIISVDTSKNQFSLRLNSVTAADTAVYYCATFYYGSGSYYNEDYWGQGTLVTVSS
VL: B3 VL with N31I, Q55K, I58V, A84T, Y87F, N93S, W96Y, V104L
B5: the “binding to EPOR-CD131-Fc” value in test [5] is given as “potent binding”. The “blocking of the EPO/EPOR interaction” value in test [4] is given as “partial blocking”. Also, in test [6], the “binding to EPOR-Fc” value was “potent binding”.

B6: EPORab - M37: hybridoma antibody clone, VH/VK in Table 10 (antibody, V domains shown)
VH: QVQLQESGPGLVKPSGTLSLTCAVSGGSITTNNWWSWVRQSPGKGLEWIGEIYHSGNTNYNPSLKSRVTMSVDKSKNQFSLNLNSVIVADTAVYYCASALGTYYGAFDTWGQGTMVTVSA
VL: DIQMTQSPSSLSASVGDRVTITCRASQSISNYLNWYQQKPGKAPKLLIYAASSLQSGVPSRFSGSGSGTDFTLTISSLQPEDFTTYYCQQSYGTPYTFGQGAKLQIK
In the case of B6, in test [4], the “blocking of the EPO/EPOR interaction” value is recorded as “did not block”.

B7: EPORab - M43: hybridoma antibody clone, VH/VK in Table 10 (antibody, V domains shown)
VH: QVQLQESGPGLVKPSGTLSLTCAVSGGSISSSNWWSWVRQPPGKGLEWIGEIYHSGSINYNPSLKSRVTISVDKSKNQFSLKLTSVTAADTAVYYCASALGNYYGAFDLWGQGTMVTVSS
VL: B6 VL with Q3V, S28T, N31S, Y49C, S56G, T84A, T85P, G93S, A102T, Q105E
As for B7, the “blocking of the EPO/EPOR interaction” value in test [4] was “did not block”.

B8: EPORab - M24: hybridoma antibody clone, VH/VK in Table 10 (antibody, V domains shown)
VH: EVQLVESGGGLVKPGGSLRLSCAASGFTFTNAWMNWVRQAPGKGLEWIGRIKSKTAGETTDYAAPVKGRFTISRDDSKNTLYLQMNSLKTEDTAVYYCTTDPDYGDPYYYYYFMDVWGKGTTVTVSS
VL: DIQMTQSPSSLSASIGDRVTISCRASQSISSYLNWYQQKPGKAPKLLIYGASSLQSGVPSRFSGSGSGTDFTLTISSLQPEDFATYYCQQSYSLPLTFGGGTKVEIK
As to B8, the “blocking of the EPO/EPOR interaction” value in test [4] is reported as “partial blocking”.

Values taken from patent publication US12637513B2, “Method of treating cancer by administering an inhibitor of erythropoietin receptor activity comprising either erythropoietin receptor or erythropoietin protein” (ImmunEdge, Inc., priority 2022, dated 2026).
